# Source: patent US6399319B1, “Protein kinase assay as a method for identification of fungicides” (Syngenta Crop Protection, Inc., priority 1996, dated 2002)
# Assays:
# protein kinase PK-III = test: Protein kinase inhibition assay, PK-III fraction (protamine-sulfate, [γ-33P]ATP); format: biochemical, Neurospora crassa; conditions: 100 μM in the enzyme assay mixture; protamine-sulfate as substrate; relative to DMSO control (=0% inhibition)
# Method: (§1) Mycelium from a stock culture of the wild-type strain 74-OR8-1, obtained from the American Type Culture Collection (ATCC 18889), is grown as inoculum in Petri dishes (d=9 cm) at 24° C. in the dark for 14 days (medium: Biomalt 10 g, Difco dry yeast extract 4 g, glucose 4 g and agar 20 g, in 1 l water). […]
# (§2) Protein kinase activity is assayed in a reaction mixture containing in a final volume of […], 20 mM Tris-HCl (pH 7.4), 20 mg protamine-sulfate, 10 mM Mg(NO3)2, 10 mM ATP (0.2 mCi [g-^33P]ATP), 1 mM NaN3, 0.04 mM okadaic acid, […] of protein kinase. After 20 minutes incubation at 32° C., aliquots of […] are analyzed for substrate phosphorylation using P81 chromatography paper (20 mm×20 mm; Whatman, Maidstone, UK) according to the method described by J. J. Witt and R. Roskoski (Anal. Biochem., 66, 253-258, 1975). After washing the unbounded radioactivity with 75 mM phosphoric acid (3×15 min) and ethanol 94% (1×5 min) the radioactivity in the chromatography paper is counted in 5 ml ULTIMA GOLD LSC-cocktail (Packard Instrument, Zürich, Switzerland) using a Tri-Carb 2500 TR Packard Instrument. […]
# protein kinase PK-II = test: Protein kinase inhibition assay, PK-II fraction (protamine-sulfate, [γ-33P]ATP); format: biochemical, Neurospora crassa; conditions: 100 μM in the enzyme assay mixture; protamine-sulfate as substrate; relative to DMSO control (=0% inhibition)
# Method: as §1, §2
structure (smiles),measurement,setting,value
"N#Cc1c[nH]cc1-c1cccc(Cl)c1Cl [fenpiclonil, 4-(2,3-dichlorophenyl)pyrrole-3-carbonitrile]",inhibition of protein kinase PK-III,protein kinase PK-III,90%
same,inhibition of protein kinase PK-II,protein kinase PK-II,67%
